4 compounds from patent US20130225623A1, “Methods of Treating Psychiatric or Neurological Disorders with MGLUR Antagonists” (MOUNT SINAI SCHOOL OF MEDICINE, priority 2010, published 2013) can be followed below.

Several values for one entry are separate records, joined by “and”; a condition that tells them apart may be missing. Equal values may be shown once.

Common to all, as to format: cell-based, mouse
Assay [1] concerns field EPSPs in hippocampal slices (area CA1); group I mGluRs. Description: DHPG-induced long-term depression (mGluR-LTD), hippocampal slice electrophysiology. To be noted: for depression in synaptic transmission (field EPSP slope): at 30 min of application; for effect of mGluR blockade on DHPG-induced LTD: Cyfip1 heterozygotes, slices incubated with antagonist and DHPG (MPEP 10 μM; LY367385 100 μM). Here is the method: (§1) Hippocampal slices (350 μm) were prepared from 4-6 week old heterozygous mice and their wild-type littermate controls. Slices were perfused with Ringer's solution containing (in mM): NaCl, 125.0; KCl, 2.5; MgSO4, 1.3; NaH2PO4, 1.0; NaHCO3, 26.2; CaCl2, 2.5; glucose, 11.0. The Ringer's solution was bubbled with 95% O2/5% CO2, at 32° C., during extracellular recordings (electrode solution: 3 M NaCl). Slices were maintained for 1 hr prior to establishment of a baseline of field excitatory postsynaptic potentials (fEPSPs) recorded from stratum radiatum in area CA1, evoked by stimulation of the Schaffer collateral-commissural afferents (100 μs pulses every 30 s) with bipolar tungsten electrodes placed into area CA3 (Bozdagi et al., 2000). Test stimulus intensity was adjusted to obtain fEPSPs with amplitudes that were one-half of the maximal response. The EPSP initial slope (mV/ms) was determined from the average waveform of four consecutive responses. Cycloheximide (60 μM, Sigma), dihydroxyphenylglycine (DHPG, 50 μM, Sigma), 2-methyl-6-phenylethynyl-pyridine (MPEP, 10 μM, Tocris), LY367385 (100 μM, Tocris), or rapamycin (20 nM, Enzo Life Sciences) were bath-applied for various durations as described in the Examples, below.
(§2) All experiments were performed in the presence of 100 μM 2-amino-5-phosphopentanoic acid (AP5). Paired-pulse responses were measured with interstimulus interval (ISI) of 50 ms, and are expressed as the ratio of the average responses to the second stimulation pulse (FP2) to the first stimulation pulse (FP1). LTP was induced by either a high-frequency stimulus (four trains of 100 Hz, 1 s stimulation separated by 5 min), a threshold levels of theta-burst stimulation (TBS) (5 bursts of four pulses at 100 Hz separated by 200 ms, (Lauterborn et al., 2007), or a single 100 Hz stimulation. To induce an mGluR-dependent LTD, Schaffer collaterals were stimulated by a paired-pulse low-frequency-stimulation (PP-LFS, 1 Hz for 20 min; 50 ms interstimulus interval (Huber et al., […]). DHPG-induced LTD was also used as described in the Examples, below
The mammalian target of rapamycin (mTOR) is an important regulator of translation in long-lasting forms of synaptic plasticity and it has been shown that DHPG-induced mGluR-LTD in hippocampal area CA1 is dependent on mTOR (see Richter and Klann, 2009). To determine whether mTOR is required for mGluR-LTD in Cyfip1 heterozygous mice, hippocampal slices were treated with DHPG in the presence of the mTOR inhibitor rapamycin.
Because mGluR5 activation is essential for mGluR-LTD induction, the effect of mGluR5 blockade on DHPG-induced LTD was examined. […] The effect of mGluR1 blockade on DHPG-induced LTD was also examined. […] The slices were next treated with both mGluR1 (LY367385) and mGluR5 (MPEP) antagonists.

Assay [2] has as its system field EPSPs at Schaffer collateral-CA1 synapses in acute hippocampal slices. Description: Paired-pulse low frequency stimulation (PP-LFS)-induced mGluR-LTD, hippocampal slice electrophysiology. Conditions: for effect on PP-LFS-induced LTD: cycloheximide 60 μM; for field EPSP slope: in the presence of cycloheximide (60 μM), at 60 min after PP-LFS. Here is the method:
as §1, §2
To examine the role of CYFIP1 in mGluR-LTD, field EPSPs were recorded at Schaffer collateral-CA1 synapses in acute hippocampal slices prepared from wild-type and Cyfip1 heterozygous mice.
One of the most striking abnormalities in experimental synaptic plasticity observed in the absence of FMRP is that mGluR-LTD is independent of protein synthesis in these animals. As the Cyfip1 heterozygotes have enhanced LTD, similar to what is observed in the absence of FMRP, mGluR-LTD in the presence of the protein synthesis inhibitor cycloheximide was examined.

The test system of assay [3] is field EPSPs in hippocampal slices (area CA1). Description: Protein synthesis-dependent LTP induced by high frequency stimulation (HFS), hippocampal slice electrophysiology.

In the case of `NC(C(=O)O)c1cc(O)cc(O)c1` (racemic) [DHPG, (RS)-3,5-dihydroxyphenylglycine], the “depression in synaptic transmission (field EPSP slope)” value in assay [1] (Cyfip1 heterozygous mice, DHPG 50 μM) is 70.5±6 % of baseline; in assay [1] (wild-type mice, DHPG 50 μM) it was 81.2±3 % of baseline.
Regarding `Cc1cc(C(=O)O)ccc1[C@H](N)C(=O)O` [LY367385], the “effect of mGluR blockade on DHPG-induced LTD” value in assay [1] is “did not cause any change”.
Take `Cc1cccc(C#Cc2ccccc2)n1` [MPEP, 2-methyl-6-(phenylethynyl)-pyridine]: the “effect of mGluR blockade on DHPG-induced LTD” value in assay [1] was “did not cause any change”.
As for `C[C@@H]1C[C@@H]([C@H](O)CC2CC(=O)NC(=O)C2)C(=O)[C@@H](C)C1` [cycloheximide], the “effect on PP-LFS-induced LTD” value in assay [2] (Cyfip1 heterozygous animals) was “not affected”; in assay [2] (wild-type littermate controls), “inhibited LTD”. For the same compound, the “field EPSP slope” value was 68.49±8.9 % of baseline in assay [2] (Cyfip1 heterozygous slices); 98.05±2.5 % of baseline in assay [2] (wild-type slices); 99±8 % of baseline and 100.8±8.2 % of baseline in assay [3]. The “inhibition of protein synthesis-dependent LTP, comparison between genotypes” value in assay [3] (wild-type vs Cyfip1 heterozygous mice, cycloheximide 60 μM, rapamycin 20 nM) is reported as “did not differ between genotypes”. For the same compound, the “effect on DHPG-induced LTD” value in assay [1] (wild-type mice, 60 μM cycloheximide, DHPG 50 μM) was “reduced LTD”.
